From patent US7608619B2, “Substituted oxazole compounds with analgesic activity” (Gruenenthal GmbH, priority 2005, dated 2009)

What follows are compounds tested against T1, human μ-opiate receptor (Homo sapiens, UniProt P35372) (assay: Affinity for the human μ-opiate receptor ([3H]-naloxone displacement, SPA, CHO-K1 membrane preparation)). Conditions: test substance 1 μmole/l; displacement of 1 nmole/l [3H]-naloxone; percentage inhibition of the specific binding; read-out: μ-opioid receptor, % inhibition [1 μM].
T1 construct: purchased Nen company, Zaventem, Belgium RB-HOM; host or cells: CHO-K1 cells (membrane preparation)
T1 sequence (P35372 whole entry): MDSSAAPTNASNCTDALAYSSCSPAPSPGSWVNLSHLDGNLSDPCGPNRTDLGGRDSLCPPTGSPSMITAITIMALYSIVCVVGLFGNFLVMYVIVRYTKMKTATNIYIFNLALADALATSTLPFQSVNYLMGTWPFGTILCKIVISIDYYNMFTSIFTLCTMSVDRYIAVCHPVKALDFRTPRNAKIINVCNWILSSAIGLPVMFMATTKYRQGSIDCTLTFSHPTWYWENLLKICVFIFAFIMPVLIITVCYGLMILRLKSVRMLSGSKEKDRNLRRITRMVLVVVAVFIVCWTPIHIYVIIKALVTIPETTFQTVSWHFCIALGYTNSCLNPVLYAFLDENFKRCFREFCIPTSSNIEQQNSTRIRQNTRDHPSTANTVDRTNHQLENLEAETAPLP
Method in brief: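 [3H]-naloxone (1 nmol/l) displacement by SPA with WGA beads, using membranes of CHO-K1 cells expressing the receptor, in 50 mmol/l Tris-HCl with 0.05% azide and 0.06% BSA; 90 min at room temperature. Non-specific binding defined with 25 μmol/l naloxone. Value is % inhibition of specific binding at 1 μmol/l test compound.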

Question: `COc1ccc(N2CCN(C(c3nc(Cc4ccccc4)c(N4CCCC4)o3)C3CCC(C(c4cccs4)N(C)C)CC3)CC2)cc1` (stereo not shown) [compound 143, [(4-{(4-benzyl-5-pyrrolidin-1-yl-oxazol-2-yl)-[4-(4-methoxyphenyl)-piperazin-1-yl]-methyl}-cyclohexyl)-thiophen-2-yl-methyl]-dimethylamine] was tested. Which inhibition at 1 µM did it give?
Answer: 77%

Question: Which inhibition at 1 µM does the source give for `COc1ccc(N2CCN(C(c3nc(Cc4ccccc4)c(N4CCOCC4)o3)C3CCC(C(c4cccs4)N(C)C)CC3)CC2)cc1` (stereo not shown) [compound 144, [(4-{(4-benzyl-5-morpholin-4-yl-oxazol-2-yl)-[4-(4-methoxy-phenyl)-piperazin-1-yl]-methyl}-cyclohexyl)-thiophen-2-yl-methyl]-dimethylamine] here?
Answer: 64%

Question: `COc1ccc(N2CCN(C(c3nc(Cc4ccccc4)c(N4CC(C)OC(C)C4)o3)C3CCC(C(c4cccs4)N(C)C)CC3)CC2)cc1` (stereo not shown) [compound 145, [(4-{[4-benzyl-5-(2,6-dimethylmorpholin-4-yl)-oxazol-2-yl]-[4-(4-methoxy-phenyl)-piperazin-1-yl]-methyl}-cyclohexyl)-thiophen-2-yl-methyl]-dimethylamine] was tested. Which inhibition at 1 µM did it give?
Answer: 69%

Question: For `CN(C)C(c1cccs1)C1CCC(C(c2nc(Cc3ccccc3)c(N3CCCC3)o2)N2CCc3ccccc3C2)CC1` (stereo not shown) [compound 146, ({4-[(4-benzyl-5-pyrrolidin-1-yl-oxazol-2-yl)-(3,4-dihydro-1H-isoquinolin-2-yl)-methyl]-cyclohexyl}-thiophen-2-yl-methyl)-dimethylamine], which inhibition at 1 µM is on record?
Answer: 92%

Question: How did the inhibition at 1 µM turn out when `COc1ccc(N2CCN(c3oc(C(C4CCC(C(c5cccs5)N(C)C)CC4)N4CCc5ccccc5C4)nc3Cc3ccccc3)CC2)cc1` (stereo not shown) [compound 147, ({4-[{4-benzyl-5-[4-(4-methoxyphenyl)-piperazin-1-yl]-oxazol-2-yl}-(3,4-dihydro-1H-isoquinolin-2-yl)-methyl]-cyclohexyl}-thiophen-2-yl-methyl)-dimethylamine] was run?
Answer: 91%

Question: For `CC1CN(c2oc(C(C3CCC(C(c4cccs4)N(C)C)CC3)N3CCc4ccccc4C3)nc2Cc2ccccc2)CC(C)O1` (stereo not shown) [compound 148, ({4-[[4-benzyl-5-(2,6-dimethylmorpholin-4-yl)-oxazol-2-yl]-(3,4-dihydro-1H-isoquinolin-2-yl)-methyl]-cyclohexyl}-thiophen-2-yl-methyl)-dimethylamine], which inhibition at 1 µM is on record?
Answer: 84%

Question: For `CN(C)C(c1cccc(F)c1)C1CCC(CC(c2nc(Cc3ccccc3)c(N3CCCC3)o2)N2CCOCC2)CC1` (stereo not shown) [compound 149, [{4-[2-(4-benzyl-5-pyrrolidin-1-yl-oxazol-2-yl)-2-morpholin-4-yl-ethyl]-cyclohexyl}-(3-fluorophenyl)-methyl]-dimethylamine], which inhibition at 1 µM is on record?
Answer: 87%

Question: With `CN(C)C(c1cccc(F)c1)C1CCC(CC(c2nc(Cc3ccccc3)c(N3CCOCC3)o2)N2CCOCC2)CC1` (stereo not shown) [compound 150, [{4-[2-(4-benzyl-5-morpholin-4-yl-oxazol-2-yl)-2-morpholin-4-yl-ethyl]-cyclohexyl}-(3-fluorophenyl)-methyl]-dimethylamine] as the compound, how does the inhibition at 1 µM read?
Answer: 75%

Question: With `COc1ccc(N2CCN(c3oc(C(CC4CCC(C(c5cccc(F)c5)N(C)C)CC4)N4CCOCC4)nc3Cc3ccccc3)CC2)cc1` (stereo not shown) [compound 151, [[4-(2-{4-benzyl-5-[4-(4-methoxyphenyl)-piperazin-1-yl]-oxazol-2-yl}-2-morpholin-4-yl-ethyl)-cyclohexyl]-(3-fluorophenyl)-methyl]-dimethylamine] as the compound, how does the inhibition at 1 µM read?
Answer: 89%

Question: `CC1CN(c2oc(C(CC3CCC(C(c4cccc(F)c4)N(C)C)CC3)N3CCOCC3)nc2Cc2ccccc2)CC(C)O1` (stereo not shown) [compound 152, [(4-{2-[4-benzyl-5-(2,6-dimethylmorpholin-4-yl)-oxazol-2-yl]-2-morpholin-4-yl-ethyl}-cyclohexyl)-(3-fluorophenyl)-methyl]-dimethylamine] was tested. Which inhibition at 1 µM did it give?
Answer: 65%
